Series [1] concerns release of TNFα from cells of nasal polyps. The experiment in a line: Inhibition of the release of TNFα from cells of nasal polyps (anti-IgE stimulated, ELISA). In kind it is cell-based. The following applies: Homo sapiens, anti-IgE stimulated nasal polyp cells. How it is done:
The experimental arrangement corresponds essentially to the method described by Campbell, A. M. and J. Bousquet (Anti-allergic activity of H1-blockers, Int. Arch. Allergy Immunol., 1993, 101, 308–310). Nasal polyps form the starting material (material from patients, who had been subjected to a surgical treatment).
The tissue is washed with RPMI 1640 and subsequently digested with protease (2.0 mg/mL), collagenase (1.5 mg/mL), hyaluronidase (0.75 mg/mL), and DNAse (0.05 mg/mL) for two hours at 37° C. (1 g of tissue and 4 mL of RPMI 1640 with enzymes). The cells obtained, a mixture of epithelial cells, monocytes, macrophages, lymphocytes, fibroblasts and granulocytes, are filtered and washed by being centrifuged repeatedly in culture solution and sensitized passively by the addition of human IgE and the cell suspension is brought to a concentration of 2 million cells/mL in RPMI 1640 (supplemented by antibiotics, 10% fetal calf serum, 2 mM of glutamine and 25 mM of Hepes). This suspension is distributed on six-well cell culture plates (1 ml/well). The cells are pre-incubated for 30 minutes with the test substances in different final concentrations and subsequently stimulated to release TNFα by the addition of anti-IgE (7.2 μg/mL). The maximum release into the culture medium takes place after about 18 hours. During this period, the cells are incubated at 37° C. and 5% carbon dioxide. The culture medium (supernatant) is recovered by centrifuging (five minutes at 4000 rpm) and kept at −70° C. until the cytokin is determined. The TNFα in the supernatant is determined with so-called sandwich ELISAs (basic material Pharmingen), with which cytokin concentrations ranging from 30 to 1000 pg/mL can be determined.
Cells, not stimulated with anti IgE, hardly produce any TNFα; on the other hand, stimulated cells secrete large amounts of TNFα, which can be reduced, for example, by PDE 4 inhibitors as a function of the dose. From the percentage inhibition (TNFα release by the cells, stimulated with anti IgE=100%) of the substances tested at different concentrations, the IC50 (concentration at 50% inhibition) is calculated.
A general note: An ELISA detects its analyte on a solid surface through an enzyme-linked reagent.

The subject of the next series is Lewis Rats. Nature of the series: Inhibition of the lipopolysaccharide (LPS)-induced lung neutrophilia. In kind it is in vivo, rat. The following applies: 1 mg/kg p.o., 2 h before LPS provocation; BAL 6 h after provocation. How it is done:
The inhibition of pulmonary neutrophil infiltration by the inventive substances is tested on male Lewis Rats (250–350 g). On the day of the experiments, the animals are placed individually in open 1 L Plexiglas boxes, which are connected to a head-nose exposure device. The animals are exposed to an aerosol of a lipopolysaccharide suspension (100 μg LPS/mL of 0.1% hydroxylamine solution) in PBS (LPS provocation). The LPS/hydroxylamine aerosol is nebulized by a nebulizer (Bird Micronebulizer, Palm Springs Calif., USA), which is operated with compressed air (0.2 MPa). The exposure time is 40 minutes, normal controls being nebulized also for 40 minutes with an aerosol of 0.1% hydroxylamine solution in PBS.
Six hours after the LPS provocation, there is a maximum, massive migration of neutrophil granulocytes into the lungs of the animals. At this time, the animals are anesthetized with an excess of ethyl urethane (1.5 g/kg of body weight i.p.) and a bronchoalveolar lavage (BAL) with 3×4 mL of Hank's balance solution is carried out. The total cell count and the number of neutrophil granulocytes of the pooled BAL liquid are subsequently determined with an automatic cell differentiation instrument (Bayer Diagnostics Technicon HIE). For each animal, the neutrophiles (NEUTRO) in the BAL are calculated in millions/animal: NEUTRO/μl×BAL recovery (mL)=NEUTRO/animal.
For each test, 2 control groups were also run (nebulization with 0.1% hydroxylamine solution in PBS and nebulization with 100 μg LPS/mL of 0.1% hydroxylamine solution in PBS).
The percentage inhibition of the neutrophilia of the experimental group, treated with substance, was calculated according to the following formula: {((LPSC−SC)−(LPSD−SC))/(LPSC−SC)}×100%=% inhibition SC=vehicle-treated control group challenged with 0.1% hydroxylamine solution; LPSC=vehicle-treated control group challenged with LPS (100 μg/mL 0.1% hydroxylamine solution); LPSD=substance-treated experimental group challenged with LPS (100 μg/mL 0.1% hydroxylamine solution) […]

`CC(C)Cn1cc(C(=O)C(=O)Nc2c(Cl)cncc2Cl)c2cccnc21` [Example 27] yielded a melting point of 152 to 154 °C. The molecule also came in with an inhibition at 1 µM in series [1] (concentration 1.0 μmole/L) of 91%. Moreover, the “Inhibition of neutrophilia (table titled Inhibition of Eosinophilia)” value with Lewis Rats is 52%.
`O=C(Nc1c(Cl)cncc1Cl)C(=O)c1cn(Cc2ccc(F)cc2)c2ncccc12` [Example 14] returned an inhibition at 0.3 µM in series [1] (concentration 0.3 μmole/L) of 92%. The “Inhibition of neutrophilia (table titled Inhibition of Eosinophilia)” value in the series on Lewis Rats was 80%.

In general, inhibition refers to the change of the read-out against control, counted positive when it falls. The low end stands for a weak effect, the high end for a strong effect. One may read the melting point as the temperature of the solid-liquid transition.

(Values after patent US7169787B2, “7-azaindoles, use thereof as phosphodiesterase 4 inhibitors and method for producing the same” (Elbion AG, priority 2000, dated 2007).)
